Assay results taken from ChEMBL document CHEMBL1126545, “Metabolism and biological activity of 1,25(OH)2D2 and its metabolites in a chronic myelogenous leukemia cell line, rwleu-4” (Bioorg Med Chem Lett, 1993).

Columns and labels:
RWLeu4 [1] = test: Concentration required to decrease [3H]thymidine incorporation by 50 percent in RWLeu4 CML cell line as compared to untreated cells was determined; assay type: functional, cell-based; conditions: Homo sapiens
RWLeu4 [2] = test: Change in cell surface marker (CD11b) along monocyte-macrophage pathway on RWLeu-4 cells; value represents the percentage of total cells positive for CD11b marker; assay type: functional, Homo sapiens
RWLeu4 [3] = test: Change in cell surface marker (CD4) along monocyte-macrophage pathway on RWLeu-4 cells; value represents the percentage of total cells positive for CD4 marker; assay type: functional, Homo sapiens

SMILES	IC50 (RWLeu4 [1]) [nM]	Cells positive (RWLeu4 [2]) [%]	Cells positive (RWLeu4 [3]) [%]
C=C1/C(=C\C=C2/CCC[C@@]3(C)C2CC[C@@H]3[C@H](C)/C=C/C(C)(O)C(C)(O)CO)C[C@@H](O)C[C@@H]1O (stereo partly specified)	11		
C=C1/C(=C\C=C2/CCC[C@]3(C)[C@@H]([C@H](C)/C=C/C(O)(CO)C(C)(C)O)CC[C@@H]23)C[C@@H](O)C[C@@H]1O (stereo partly specified)	> 100		
C=C1/C(=C\C=C2/CCC[C@]3(C)[C@@H]([C@H](C)/C=C/C(C)C(C)(C)O)CC[C@@H]23)C[C@@H](O)C[C@@H]1O (stereo partly specified)	13	88	15
C=C1/C(=C\C=C2/CCC[C@]3(C)[C@@H]([C@H](C)/C=C/C(CO)C(C)(C)O)CC[C@@H]23)C[C@@H](O)C[C@@H]1O (stereo partly specified)	96		
C=C1/C(=C\C=C2/CCC[C@@]3(C)C2CC[C@@H]3[C@H](C)/C=C/C(C)C(C)(O)CO)C[C@@H](O)C[C@@H]1O (stereo partly specified)	8	89	21
C=C1/C(=C\C=C2/CCC[C@]3(C)[C@@H]([C@H](C)CC[C@@H](O)C(C)(C)O)CC[C@@H]23)C[C@@H](O)C[C@@H]1O	11		
C=C1/C(=C\C=C2/CCC[C@@]3(C)C2CC[C@@H]3[C@H](C)/C=C/C(C)(O)C(C)(C)O)C[C@@H](O)C[C@@H]1O (stereo partly specified)	11		
